Measurements reported in PubChem BioAssay (NCI).
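GI50: concentration for 50% inhibition of growth.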

Legend:
HL-60(TB) leukemia = assay: inhibition of tumour cell growth, NCI panel, 384-well format
CCRF-CEM leukemia = assay: as above

NC(=O)NO
GI50 (HL-60(TB) leukemia): 81.9 µM
GI50 (CCRF-CEM leukemia): 76.3 µM
